Results reported in patent US20250027956A1, “Improved Gamma-Secretase Inhibitor Screening Assays” (VIB VZW, priority 2021, published 2025).

Assays:
[1] = system: lysosomal exocytosis; details: cited from earlier work
[2] = system: APPKO cells; experiment: Lysosomal Ca2+ content, Fura-2AM loaded cells challenged with GPN, APPKO cells; type: cell-based, mouse; details: 1 μM, 4 days, normalized to DMSO
Source text: Diluent treatment alone (in most cases DMSO, water for the cyclodextrin) was used as vehicle control.
Briefly, the web-based CRISPR design tool was used to select the sequence to be targeted in mouse PSEN1 and PSEN2 (i.e. 5′-[…]-3′ and 5′-[…]-3′, respectively). Oligo pairs encoding guide sequences (obtained from Integrated DNA Technologies, IDT) were annealed and ligated into the pX330 plasmid (Addgene) according to the Zhang's laboratory protocol (https://www.addgene.org/crispr/zhang/). MEF cells were then transfected with the pX330-PSEN1 and PX330-PSEN2, using Fugene HD (Promega), in accordance with the manufacturer protocol. Selection of PSENdKO clones was achieved through serial dilution and confirmed by WB analysis. Further depletion of APP in different PSENdKO clones was achieved through electroporation of RNP complexes. […]
Cells were rinsed three times and left to equilibrate for at least 15-20 min (RT). […] Briefly, cells were segmented manually and fluorescence intensities were measured over time. Fura-2 signals were corrected to obtain ΔF/F0 (F0 being the initial signal recorded). For each cell, the area under the curve, corresponding to the aforementioned stimulation, was measured using GraphPad Prism.

[3] = system: WT MEFs; experiment: Immunoblot of APP-CTFs in drug-treated WT MEFs; type: cell-based, mouse; details: 1 μM for 1-4 days, vs DMSO
Description: (§1) Cells were treated with the following drugs, usually for 4 days, unless otherwise stated: DAPT (2634/10, Tocris) 1 μM final; Inhibitor X (565771-250 μg, Calbiochem/Merck) 1 μM final; β-Secretase Inhibitor IV (565788, Calbiochem/Merck) 2 μM final, (2-Hydroxypropyl)-γ-cyclodextrin (H125-5G-I, Sigma Aldrich) 1 mM final; Adam 10 inhibitor G1254023X (SML0789, Sigma Aldrich) 3 μM final. For OSW-1 (30310-1, Sanbio/Cayman Chemical), cells were treated overnight with 10 nM. Diluent treatment alone (in most cases DMSO, water for the cyclodextrin) was used as vehicle control.
Whole cell extracts were prepared starting from lysed cultured cells (80% confluency). Protein concentration was determined using the Bio-Rad DC protein assay (Bio-Rad). These extracts were run on 4-12% Bis-Tris Bolt or NuPAGE precast gels in MES/MOPS running buffer (Invitrogen), followed by transfer on nitrocellulose membranes (Life Technologies). Of note, for APP-CTFs characterization, samples were run on 16% tricine gels (Life Technologies) in the appropriate running buffer (LC1675, Life Technologies). Membranes were blocked with 5% non-fat milk (1 h, RT), incubated with primary antibodies (overnight, 4° C.), rinsed and incubated with HRP-conjugated secondary antibodies (1 h, RT). […]

[4] = system: WT MEFs; experiment: Lysosomal Ca2+ content, Fura-2AM loaded cells challenged with GPN, WT cells; type: cell-based, mouse; details: normalized to DMSO
Description: as §1
Cytosolic response: Ca2+ responses were measured as previously described in Coen et al 2012. Briefly, cells (0.005 to 0.01×106) were seeded two to three days prior to the experiment on glass coverslips (631-0153, VWR). On the day of recording, cells were rinsed three times in Ringer solution (155 mM NaCl, 5 mM KCl, 2 mM MgCl2, 2 mM CaCl2, 10 mM Glucose, 10 mM HEPES, 2 mM NaH2PO4·2H20; pH 7.3), and loaded 1 μM Fura2-AM (F1221, ThermoFisher Scientific) for 30 min (RT). Cells were rinsed three times and left to equilibrate for at least 15-20 min (RT). All acquisitions were carried out in Ringer Ca2+ free solution (same as above, albeit the 2 mM CaCl2 were replaced by 2 mM EGTA). During experiments, cells were challenged with different drugs, such as Thapsigargin (T7459, ThermoFisher Scientific, 1 μM final), GPN (ab145914, abcam, 100 μM final for MEFs, 500 μM for neurons), MLSA1 (Cat. No. 4746, Tocris, 20 μM final) or lonomycin (10634, Sigma Aldrich, 1 μM final). Images were acquired every 5 sec for 8-10 min, using an Olympus IX81 using an UAPO/340 40× oil objective (1.35 NA), operated by CellR Software (Olympus). Recordings were done using 340 and 380 nm excitation, and 530 nm emission filters. Image processing was performed using Image J Software (Schindelin et al 2012; Schneider et al 2012). Briefly, cells were segmented manually and fluorescence intensities were measured over time. Fura-2 signals were corrected to obtain ΔF/F0 (F0 being the initial signal recorded). For each cell, the area under the curve, corresponding to the aforementioned stimulation, was measured using GraphPad Prism.

[5] = system: WT MEFs; experiment: Confocal immunofluorescence (compartment size, Mander's colocalization, filipin) in WT MEFs; type: cell-based, mouse
Description: as §1
Immunofluorescence: Cells were fixed (4% paraformaldehyde (PFA)/4% sucrose in PBS free of Ca2+ and Mg2+ (PBS−/−) 20 min, RT), permeabilized (0.1% triton X-100 in PBS−/−; 10 min, RT), and blocked (2% BSA, 2% FBS, 1% gelatin, and depending of the experiment 2% of goat or donkey serum (Bioké or Sigma), 1 h RT). Primary antibodies diluted in the same blocking buffer were incubated overnight at 4° C. Following PBS washing steps, (goat- or donkey-) secondary antibodies conjugated with Alexa fluor dyes (Alexa 488, 568, or 647, all ThermoFisher Scientific) diluted in the blocking buffer were incubated for 1 h, RT. Coverslips were then mounted with Mowiol (Sigma). When cholesterol labelling was performed, fixed cells were treated with 200 μg·ml−1 filipin (F4767, Sigma) for 2 h at RT, prior to permeabilization.
Acquisition: Z stack images (spacing 2 μm), or a median plan were acquired on a Nikon 1AR connected to an inverse Nikon Ti-2000 equipped with an oil-immersion plan APO 60× objective lenses with 1.40 NA. Data were collected using Nikon Imaging Software.
Image analysis: All image analysis was done using Image J software (Schindelin et al 2012; Schneider et al 2012). To measure the area of the organelle of interest (early endosomes-EEA1; lysosomes-Lamp1; retromer-VPS35 . . . ), segmentation was realized using automatic thresholding. The following masks were used: Mean (EEA1), Ostu (Lamp1), Intermodes (VPS35). Overlap of signal of interests were quantified with Manders colocalisation index (Plugin Jacob, (Bolte and Cordelieres 2006)). When indicated, co-localization data was normalized to the reference group for multiple comparisons.

In the case of `O=c1c(-c2ccc(O)cc2)coc2cc(O)cc(O)c12` [Genistein], the “lysosomal exocytosis and cholesterol accumulation” value [1] is given as “increase lysosomal exocytosis with a decrease in cholesterol accumulation”.
For `C[C@H](NC(=O)Cc1cc(F)cc(F)c1)C(=O)N[C@H](C(=O)OC(C)(C)C)c1ccccc1` [DAPT], the “Lysosomal Ca2+ content (GPN-elicited Ca2+ response)” value [2] was “did not affect the GPN-elicited Ca2+ response”, the “APP-CTFs level (immunoblot)” value [3] was “rapidly accumulated APP-CTFs” and the “lysosomal Ca2+ content” value ([4]; 1 μM for 1-4 days, 100 μM GPN) was “significantly reduced lysosomal Ca2+ content”. For the same compound, the “lysosomal Ca2+ content” value ([4]; WT cells, 1 μM, 4 days) was “reduced”, the “early endosomes (EEA1) size” value ([5]; 1 μM for 1-4 days) was “significantly enlarged only after 4 days of treatment” and the “APP-CTF accumulation in LAMP1-positive LE/Lys (Mander's colocalization APP-Lamp1)” value ([5]; 1 μM for 1-4 days, vs DMSO) was “increasing APP-CTF accumulation”. For the same compound, the “cholesterol accumulation in LE/Lys (Filipin-Lamp1 colocalization)” value ([5]; 1 μM for 1-4 days, vs DMSO) was “only significantly from day 2”, the “colocalization of VPS35 and EEA1 with Lamp1” value ([5]; 1 μM for 1-4 days, from day 3 onward) was “increased colocalization of VPS35 and EEA1 with Lamp1” and the “VPS35-positive organelles (size)” value ([5]; 1 μM, following 3 days of treatment) was “found to be increased”.
